Here are results for two compounds from patent publication US20080207578A1, “METHOD OF INDUCING APOPTOSIS IN CANCER TREATMENT BY USING CUCURBITACINS” (priority 2006, published 2008).

The structures appear in SMILES notation.

The test system of assay [1] is HL60 (TB) leukemia cell line. The assay can be described thus: Cell cycle analysis by PI flow cytometry, HL60 (TB). As to conditions: 48 hours. It is filed as cell-based, human. A general note: A flow cytometer gives signals particle by particle.
The subject of assay [2] is human cancer cell lines (18 selected from the 59-NCI panel). The assay can be described thus: Annexin V-FITC/propidium iodine flow cytometric apoptosis assay, 18 selected cell lines. It is filed as cell-based. Conditions: 48 hours; for cell lines in which apoptosis was induced: GI50, 1/2 GI50 and 1/4 GI50 of particular cell line; for dose dependence of apoptosis induction (in words): three concentrations. On the procedure:
Human cancer cell lines from the 59-NCI Cancer Cell Line Panel including leukemia, melanoma and cancers of breast, brain, colon, lung, ovary, prostate and kidney were purchased from the National Institute of Cancer. […] They were treated with cucurbitacin B and cucurbitacin D at three different concentrations to elucidate their ability to induce any changes in cell cycle.
Cancer cell lines were maintained in RPMI 1640 supplemented with 5% Fetal Bovine Serum, 2 mM L-glutamine and 1% Penicillin/Streptomycin at 37° C. with 5% CO2. All chemicals were purchased from Sigma unless specified otherwise.
Cells were inoculated into tissue culture flask at cell concentrations from 50000 to 400,000 cells/ml according to the NCl guideline. The cells were incubated at 37° C. with 5% CO2 for 24 hours. Cucurbitacin B and cucurbitacin D were added to the cells of final concentrations ranging from 6 to 350 nM (GI50, ½ GI50 and ¼ GI50 of particular cell line) for 48 hours at 37° C. with 5% CO2. Cells ([…]) were then harvested and stained with 5 μl Annexin V-FITC and 10 μl propidium iodine (Becton Dickinson, Calif., USA) for 15 minutes at room temperature. Ten thousands events were collected by the FACScaliber and the percentage of different cell populations were analyzed by the CellQuest™ software (Becton Dickinson).

The test system of assay [3] is prostate cancer cell lines. The assay can be described thus: SRB growth inhibition assay, prostate cancer group. It is filed as cell-based, human. Conditions: most sensitive type to cucurbitacin B, 48 hours. The source says:
(§1) Human cancer cell lines from the 59-NCl Cancer Cell Line Panel including leukemia, melanoma and cancers of breast, brain, colon, lung, ovary, prostate and kidney, were purchased from the National Institute of Cancer (USA). The growth inhibition (GI50) of these cell lines treated with cucurbitacin B and cucurbitacin D in various concentrations was investigated.
(§2) 59 human cancer cell lines were maintained in RPMI 1640 (Invitrogen Life Technologies, Calif., USA) supplemented with 5% Fetal Bovine Serum, 2 mM L-glutamine and 1% Penicillin/Streptomycin (Invitrogen Life Technologies) at 37° C. with 5% CO2. All chemicals were purchased from Sigma (St. Louis, Mo., USA) unless specified otherwise.
(§3) Sulforhodamine B (SRB) assay was applied to determine the cytostatic effect of cucurbitacin B and cucurbitacin D. SRB is a dye which binds to cellular proteins and will be dissolved in base. The biomass of total protein can be measured at 520 nm using a plate reader.
(§4) Cells were inoculated into 96-well microtiter plates including “Time zero” (Tz) plates in 100 μl at cell concentrations from 5000 to 40,000 cells per well according to NCI guideline. The cells were incubated at 37° C. with 5% CO2 for 24 hours. […] Bound SRB was solubilized with 100-200 ul per well of 10 mM trizma base and absorbance was measured at a wavelength of 520 nm. The percentage of growth inhibition was calculated as follows: […]

Assay [4] has as its system phosphorylated-ERK, cyclin E, phosphorylated-Rb, c-myc in HL60 cells. The assay can be described thus: Western blot of MAPK / cell cycle signaling proteins in HL60 cells. Type of assay: cell-based, human. On the procedure: (§5) Control cells, as well as cells treated with cucurbitacin B or cucurbitacin D, were harvested and collected by centrifugation. Whole cell extracts were then prepared by lysing the cells using 4% sodium dodecyl sulfate (SDS) gel sample buffer. Cell extracts were boiled for 10 min and chilled on ice, subjected to 12% SDS-polyacrylamide gel electrophoresis, and transferred to a PVDF membrane. Each membrane was cut into to two pieces with one piece incubated at 4^˜ overnight with antibodies against cell cycle signaling proteins, such as ERK, phosphorlated-ERK, p38, phosphorlated-p38, Cyclin E, Retinoblastoma, phosphalated-Retinoblastoma and c-myc, and apoptotic protein (PARP). β-actin was used as a control for protein loading. All antibodies were obtained from Cell signaling Technologies (USA). Then membranes were incubated at 37^˜ for 1 h with secondary antibody conjugated with peroxidase, and the signal was detected using chemiluminescence detection reagent. The relative protein level was calculated as the ratio of the optical density of the protein of interest to that of β-actin.
For orientation: A western blot detects proteins with antibodies after separation by electrophoresis.

In assay [5] the test system is 59 human cancer cell lines. As to the kind of experiment: Sulforhodamine B (SRB) growth inhibition assay, 59-NCI Cancer Cell Line Panel. It is filed as cell-based. Conditions: 0.488 to 4000 nM, 48 hours.
Text: as §1, §2, §3, §4

Assay [6] has as its system PARP in HL 60 human leukemia cells. The assay can be described thus: Western blot of PARP cleavage in HL60 cells. Type of assay: cell-based. The procedure:
as §5

Assay [7] has as its system human cancer cell lines (18 selected from the 59-NCI panel). The assay can be described thus: Cell cycle analysis by PI flow cytometry, 18 selected cell lines. It is filed as cell-based. As to conditions: GI50, 1/2 GI50 and 1/4 GI50 of particular cell line, 48 hours.
Another assay concerns melanoma cell lines. The assay can be described thus: SRB growth inhibition assay, melanoma group. As to conditions: most sensitive type to cucurbitacin D, 48 hours. It is filed as cell-based, human.
Text: as §1, §2, §3, §4

The subject of a further assay is SF-295 CNS cell line. The assay can be described thus: Cell cycle analysis by PI flow cytometry, SF-295. Type of assay: cell-based, human. As to conditions: SF-295, 48 hours.

The term GI50 denotes the concentration at which growth is held to half of that of the control. A low value points to greater sensitivity of the cells. Turning to `CC(=O)OC(C)(C)/C=C/C(=O)[C@](C)(O)[C@H]1[C@H](O)C[C@@]2(C)[C@@H]3CC=C4[C@H](C[C@H](O)C(=O)C4(C)C)[C@]3(C)C(=O)C[C@]12C` [cucurbitacin B], in assay [1], the “effect on cell cycle (in words)” value is “G2/M arrest and endoreduplication”. In [2], the “cell lines in which apoptosis was induced” value is listed as 9 out of 18 and the “dose dependence of apoptosis induction (in words)” value was “induced apoptosis in a dose-dependent manner”. Further, the GI50 in assay [3] stood at 17 nM. Also, in [4], the “ERK (in words)” value is “ERK activation”, the “c-myc (in words)” value is listed as “down-regulation of c-myc”, the “cyclin E (in words)” value is “cyclin E down-regulation” and the “retinoblastoma phosphorylation (in words)” value is “inhibition of retinoblastoma's phosphorylation”. In addition, the “growth inhibition of 59 cancer cell lines (in words)” value in assay [5] is “inhibited the growth of 59 cancer cell lines dose-dependently”. Further, the “PARP (apoptosis marker) in western blot (in words)” value in [6] was “cleavage of PARP”. In assay [7], the “cell lines arrested in G2/M” value is recorded as 6 out of 18.
As to `CC(C)(O)/C=C/C(=O)[C@](C)(O)[C@H]1[C@H](O)C[C@@]2(C)[C@@H]3CC=C4[C@@H](C[C@H](O)C(=O)C4(C)C)[C@]3(C)C(=O)C[C@]12C` [cucurbitacin D], in assay [2], the “cell lines in which apoptosis was induced” value was 11 out of 18 and the “dose dependence of apoptosis induction (in words)” value was “induced apoptosis in a dose-dependent manner”. Moreover, the concentration for 50% growth inhibition (GI50) in the assay with melanoma cell lines worked out at 60 nM. In [4], the “ERK (in words)” value is listed as “ERK activation”, the “c-myc (in words)” value is recorded as “down-regulation of c-myc”, the “cyclin E (in words)” value is “cyclin E down-regulation” and the “retinoblastoma phosphorylation (in words)” value was “inhibition of retinoblastoma's phosphorylation”. The “effect on cell cycle (in words)” value in the assay with SF-295 CNS cell line was “G2/M arrest and endoreduplication”. Further, the “growth inhibition of 59 cancer cell lines (in words)” value in [5] is given as “inhibited the growth of 59 cancer cell lines dose-dependently”. Besides, the “PARP (apoptosis marker) in western blot (in words)” value in assay [6] was “cleavage of PARP”. Besides, the “cell lines arrested in G2/M” value in assay [7] is given as 9 out of 18.
